The values below come from ChEMBL document CHEMBL5625233, “Exploring positions 6 and 7 of a quinazoline-based scaffold leads to changes in selectivity and potency towards RIPK2/3 kinases” (Eur J Med Chem, 2023).

The source made the active and inactive calls. No cut-off for these calls is given here.

For assay [1], the target named is T1, Receptor-interacting serine/threonine-protein kinase 4 (Homo sapiens, UniProt P57078).
T1 sequence (P57078 whole entry): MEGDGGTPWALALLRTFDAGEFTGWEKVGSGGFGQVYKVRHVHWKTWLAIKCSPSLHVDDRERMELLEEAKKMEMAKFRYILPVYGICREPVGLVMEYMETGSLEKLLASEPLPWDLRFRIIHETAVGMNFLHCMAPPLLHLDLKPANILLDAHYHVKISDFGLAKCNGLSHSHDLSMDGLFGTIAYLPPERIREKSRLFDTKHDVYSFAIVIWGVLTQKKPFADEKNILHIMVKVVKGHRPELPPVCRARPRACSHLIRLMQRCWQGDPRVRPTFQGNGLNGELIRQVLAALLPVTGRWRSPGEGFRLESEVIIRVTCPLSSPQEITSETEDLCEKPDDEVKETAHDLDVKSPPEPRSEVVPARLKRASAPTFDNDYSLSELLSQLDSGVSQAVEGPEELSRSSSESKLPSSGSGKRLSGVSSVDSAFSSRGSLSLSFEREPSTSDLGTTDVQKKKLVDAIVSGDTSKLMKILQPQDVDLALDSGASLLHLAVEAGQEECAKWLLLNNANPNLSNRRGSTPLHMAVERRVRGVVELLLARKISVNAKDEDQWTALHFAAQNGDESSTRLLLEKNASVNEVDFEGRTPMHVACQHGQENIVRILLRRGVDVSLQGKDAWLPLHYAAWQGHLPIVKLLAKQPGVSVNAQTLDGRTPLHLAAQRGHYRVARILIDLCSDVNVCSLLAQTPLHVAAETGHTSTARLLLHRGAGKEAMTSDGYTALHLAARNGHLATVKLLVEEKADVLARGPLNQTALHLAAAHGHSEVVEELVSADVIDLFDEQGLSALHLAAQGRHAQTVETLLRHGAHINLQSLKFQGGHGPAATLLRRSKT
The experiment in a line: Inhibition of N-terminal polyHis-tagged human RIPK4 (1 to 321 residues) expressed in Sf9 cells using MBP as substrate preincubated for 15 mins followed by ATP addition measured after 90 mins by ADP-Glo assay.

For assay [2], the target named is T2, Receptor-interacting serine/threonine-protein kinase 2 (Homo sapiens, UniProt O43353). The experiment in a line: Inhibition of N-terminal polyHis-tagged human RIPK2 (8 to 310 residues) expressed in Sf9 cells using MBP as substrate preincubated for 15 mins followed by ATP addition measured after 90 mins by ADP-Glo assay. (In general: ADP-Glo first removes unused ATP, then detects ADP through luciferase.)

Assay [3] deals with T2, Receptor-interacting serine/threonine-protein kinase 2. Briefly: Inhibition of RIPK2-mediated NF-kappaB signalling in C14-TriLAN-Gly-treated human THP-1 cells upto 10 uM preincubated for 30 mins followed by C14-TriLAN-Gly addition measured after 24 hrs by luminescence based assay. In kind it is cell-based.
Assay [4] deals with T3, Receptor-interacting serine/threonine-protein kinase 1 (Homo sapiens, UniProt Q13546).
T3 sequence (Q13546 whole entry): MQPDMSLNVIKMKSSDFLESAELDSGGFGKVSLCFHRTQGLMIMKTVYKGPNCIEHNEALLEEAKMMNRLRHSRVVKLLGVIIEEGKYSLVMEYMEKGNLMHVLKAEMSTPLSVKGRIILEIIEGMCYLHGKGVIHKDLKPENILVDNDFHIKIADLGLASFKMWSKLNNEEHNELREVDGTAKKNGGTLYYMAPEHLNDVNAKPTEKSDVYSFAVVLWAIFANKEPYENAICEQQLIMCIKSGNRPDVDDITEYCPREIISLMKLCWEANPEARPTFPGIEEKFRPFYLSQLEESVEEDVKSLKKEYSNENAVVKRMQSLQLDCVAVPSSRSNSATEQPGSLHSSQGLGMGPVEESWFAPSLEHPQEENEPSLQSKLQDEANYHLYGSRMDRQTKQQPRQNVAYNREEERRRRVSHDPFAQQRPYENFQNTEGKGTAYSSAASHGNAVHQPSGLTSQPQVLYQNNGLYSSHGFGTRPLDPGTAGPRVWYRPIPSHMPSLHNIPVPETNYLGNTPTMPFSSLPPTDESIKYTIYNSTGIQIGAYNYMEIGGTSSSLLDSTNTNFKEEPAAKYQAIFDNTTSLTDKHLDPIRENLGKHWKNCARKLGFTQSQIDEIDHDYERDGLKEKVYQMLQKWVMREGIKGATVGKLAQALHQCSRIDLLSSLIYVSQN
Briefly: Inhibition of N-terminal polyHis-tagged human RIPK1 (1 to 321 residues) expressed in Sf9 cells using MBP as substrate preincubated for 15 mins followed by ATP addition measured after 90 mins by ADP-Glo assay.

Assay [5] addresses T2, Receptor-interacting serine/threonine-protein kinase 2. The experiment in a line: Inhibition of RIPK2-mediated NF-kappaB signalling in MDP-treated human THP-1 cells preincubated for 30 mins followed by MDP addition measured after 24 hrs by luminescence based assay. In kind it is cell-based.
Assay [6] concerns the target T4, Receptor-interacting serine/threonine-protein kinase 3 (Homo sapiens, UniProt Q9Y572). Briefly: Inhibition of N-terminal polyHis-tagged human RIPK3 (1 to 307 residues) expressed in Sf9 cells using MBP as substrate upto 10 uM preincubated for 15 mins followed by ATP addition measured after 90 mins by ADP-Glo assay. Particulars: time 105.0 min.
Target sequence in this assay (Q9Y572 whole entry, looked up, the tested form may be a part): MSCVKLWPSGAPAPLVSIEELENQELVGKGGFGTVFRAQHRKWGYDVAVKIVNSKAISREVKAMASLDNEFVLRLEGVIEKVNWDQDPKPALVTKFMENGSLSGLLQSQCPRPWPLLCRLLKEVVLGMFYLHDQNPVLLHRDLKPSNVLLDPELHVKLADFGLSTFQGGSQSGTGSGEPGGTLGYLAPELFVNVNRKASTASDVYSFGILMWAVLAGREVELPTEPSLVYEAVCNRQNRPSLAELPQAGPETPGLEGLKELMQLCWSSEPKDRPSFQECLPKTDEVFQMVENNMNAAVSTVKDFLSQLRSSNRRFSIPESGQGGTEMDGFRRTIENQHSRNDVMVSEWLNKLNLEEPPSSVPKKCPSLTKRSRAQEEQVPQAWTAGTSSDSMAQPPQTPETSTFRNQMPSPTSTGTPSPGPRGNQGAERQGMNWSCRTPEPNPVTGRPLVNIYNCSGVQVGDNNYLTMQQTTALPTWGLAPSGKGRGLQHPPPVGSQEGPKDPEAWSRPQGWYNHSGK
The target of assay [7] is T2, Receptor-interacting serine/threonine-protein kinase 2. Briefly: Inhibition of RIPK2-mediated NF-kappaB signalling in C14-TriLAN-Gly-treated human THP-1 cells preincubated for 30 mins followed by C14-TriLAN-Gly addition measured after 24 hrs by luminescence based assay. In kind it is cell-based.
In assay [8] the target is T4, Receptor-interacting serine/threonine-protein kinase 3. Briefly: Inhibition of N-terminal polyHis-tagged human RIPK3 (1 to 307 residues) expressed in Sf9 cells using MBP as substrate preincubated for 15 mins followed by ATP addition measured after 90 mins by ADP-Glo assay.
Target sequence in this assay (Q9Y572 whole entry, the tested form may be a part): as the sequence (Q9Y572 whole entry, looked up, the tested form may be a part) above
Assay [9] has as its target T2, Receptor-interacting serine/threonine-protein kinase 2. The experiment in a line: Inhibition of RIPK2-mediated NF-kappaB signalling in MDP-treated human THP-1 cells upto 10 uM preincubated for 30 mins followed by MDP addition measured after 24 hrs by luminescence based assay. In kind it is cell-based.

T2 sequence (O43353 whole entry, the tested form may be a part): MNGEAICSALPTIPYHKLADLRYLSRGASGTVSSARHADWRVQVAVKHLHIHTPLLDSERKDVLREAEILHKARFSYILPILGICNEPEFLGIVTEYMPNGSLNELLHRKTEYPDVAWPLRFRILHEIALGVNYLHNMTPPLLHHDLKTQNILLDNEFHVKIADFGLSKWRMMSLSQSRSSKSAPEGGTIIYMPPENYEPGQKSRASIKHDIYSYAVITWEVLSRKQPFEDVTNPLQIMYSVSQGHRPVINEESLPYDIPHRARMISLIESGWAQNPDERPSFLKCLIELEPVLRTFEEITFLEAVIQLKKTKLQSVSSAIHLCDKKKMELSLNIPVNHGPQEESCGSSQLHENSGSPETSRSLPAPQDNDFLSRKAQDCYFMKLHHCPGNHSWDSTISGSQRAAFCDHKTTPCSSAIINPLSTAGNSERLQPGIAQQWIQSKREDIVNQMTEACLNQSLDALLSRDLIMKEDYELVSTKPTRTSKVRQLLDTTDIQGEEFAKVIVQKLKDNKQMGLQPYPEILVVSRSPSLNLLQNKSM

In the case of `Cc1cscc1-c1cc2c(Nc3ccc4scnc4c3)ncnc2cc1Cl`, the half-inhibitory concentration (IC50) (as a rule, the point on the concentration scale where inhibition reaches its midpoint) was greater than 50000 nM in assay [1]; 104 nM in assay [2]; “Not Active” in assay [3]; greater than 50000 nM in assay [4]; 2080 nM in assay [5]. The inhibition result in [6] was “inactive”.
As to `OCc1cccc(-c2cc3ncnc(Nc4ccc5scnc5c4)c3cc2-c2cccs2)c1`, the IC50 was 432 nM in [7]; greater than 50000 nM in assay [1]; 5 nM in [2]; greater than 50000 nM in assay [4]; 551 nM in assay [8]; 396 nM in assay [5].
As for `Cn1cnc(-c2cc3c(Nc4ccc5scnc5c4)ncnc3cc2Cl)c1`, the IC50 in assay [7] was 208 nM; in assay [1] it was greater than 50000 nM; in assay [2] it was 10 nM; in assay [4], greater than 50000 nM; in [5], 140 nM. Moreover, the inhibition entry in [6] is “inactive”.
In the case of `CC(C)S(=O)(=O)c1ccc2nccc(Nc3ccc4scnc4c3)c2c1`, the IC50 turned out to be 9 nM in assay [7], 2 nM in assay [2] and 4 nM in [5].
In the case of `Cn1cnc(-c2ccc3ncnc(Nc4ccc5scnc5c4)c3c2)c1`, the IC50 was 209 nM in assay [7]; greater than 50000 nM in assay [1]; 11 nM in [2]; greater than 50000 nM in assay [4]; 95 nM in assay [5]. Further, the inhibition result in [6] is “inactive”.
On to `c1ccc(-c2ccc3ncnc(Nc4ccc5scnc5c4)c3c2)cc1`, for which the IC50 was 4360 nM in [7]; greater than 50000 nM in assay [1]; 18 nM in [2]; greater than 50000 nM in assay [4]; 3600 nM in assay [8]; 2130 nM in assay [5].
`c1nc(Nc2ccc3scnc3c2)c2cc(-c3cc[nH]n3)ccc2n1`: the IC50 is 114 nM in [7]; greater than 50000 nM in assay [1]; 6 nM in assay [2]; greater than 50000 nM in assay [4]; 2100 nM in assay [8]; 68 nM in [5].
`Cn1ccnc1-c1ccc2ncnc(Nc3ccc4scnc4c3)c2c1`: the IC50 is 239 nM in assay [7]; greater than 50000 nM in assay [1]; 12 nM in [2]; greater than 50000 nM in assay [4]; 273 nM in assay [5]. Also, the inhibition entry in [6] is “inactive”.
`Cn1cc(-c2cc3c(Nc4ccc5scnc5c4)ncnc3cc2Cl)cn1`: the IC50 in assay [7] is 67 nM; in assay [1] it was greater than 50000 nM; in assay [2] it was 4 nM; in assay [4] it was greater than 50000 nM; in assay [5], 63 nM. For the same compound, the inhibition result in [6] is “inactive”.
For the compound `Cn1cc(-c2ccc3ncnc(Nc4ccc5scnc5c4)c3c2)cn1`, the IC50 in assay [7] is 47 nM; in [1], greater than 50000 nM; in assay [2] it was 4 nM; in assay [4], greater than 50000 nM; in assay [8], 1500 nM; in assay [5], 38 nM.
In the case of `Cc1cscc1-c1ccc2ncnc(Nc3ccc4scnc4c3)c2c1`, the IC50 in [7] is 4430 nM; in [1], greater than 50000 nM; in assay [2], 29 nM; in [4], greater than 50000 nM; in assay [8], 1900 nM; in assay [5] it was 1530 nM.
`Cc1ncc(-c2ccc3ncnc(Nc4ccc5scnc5c4)c3c2)s1`: the IC50 in [7] was 136 nM; in assay [1], greater than 50000 nM; in [2], 4 nM; in assay [4] it was greater than 50000 nM; in assay [8] it was 6000 nM; in assay [5], 108 nM.
`Cc1ncc(-c2ccc3ncnc(Nc4ccc5scnc5c4)c3c2)n1C`: the IC50 in assay [7] was 143 nM; in assay [1], greater than 50000 nM; in assay [2] it was 9 nM; in assay [4], greater than 50000 nM; in assay [5], 240 nM. Also, the inhibition result in assay [6] is “inactive”.
As for `Cc1csc(-c2ccc3ncnc(Nc4ccc5scnc5c4)c3c2)n1`, the concentration for half-maximal inhibition (IC50) in assay [7] is 2750 nM; in assay [9], “Not Active”; in assay [1] it was greater than 50000 nM; in assay [2], 5 nM; in [4], greater than 50000 nM; in assay [8] it was 382 nM.
Take `CC(C)(C)S(=O)(=O)c1cc2c(Nc3ccc4scnc4c3)ncnc2cc1OCCOP(=O)(O)O`: the IC50 in [7] turned out to be 92 nM; in assay [2] it was 4 nM; in assay [5], 38 nM. Further, in assay [6], the inhibition result is “inactive”.
`Clc1cc2ncnc(Nc3ccc4scnc4c3)c2cc1-c1cc[nH]n1`: the IC50 in [7] was 155 nM; in assay [9], “Not Active”; in [1], greater than 50000 nM; in assay [2], 10 nM; in assay [4], greater than 50000 nM. For the same compound, in assay [6], the inhibition entry is “inactive”.
On to `Cn1cccc1-c1ccc2ncnc(Nc3ccc4scnc4c3)c2c1`, for which the IC50 in assay [7] is 726 nM; in assay [1], greater than 50000 nM; in assay [2] it was 22 nM; in assay [4], greater than 50000 nM; in [8] it was 2900 nM; in [5] it was 523 nM.
`Cc1ccsc1-c1ccc2ncnc(Nc3ccc4scnc4c3)c2c1`: the IC50 in [7] was 438 nM; in assay [1] it was greater than 50000 nM; in [2], 6 nM; in assay [4], greater than 50000 nM; in assay [8], 388 nM; in assay [5], 362 nM.
For `Cn1nccc1-c1cc2c(Nc3ccc4scnc4c3)ncnc2cc1Cl`, the IC50 in assay [7] is 313 nM; in assay [1], greater than 50000 nM; in assay [2], 18 nM; in assay [4], greater than 50000 nM; in assay [8] it was 1600 nM; in assay [5] it was 318 nM.
With `Cn1nc(C(F)(F)F)cc1-c1cc2c(Nc3ccc4scnc4c3)ncnc2cc1Cl`, the IC50 in assay [7] is 4570 nM; in assay [1], greater than 50000 nM; in assay [2], 324 nM; in [4] it was greater than 50000 nM; in assay [8], 2600 nM; in [5], 3360 nM.
Take `Cc1ncc(-c2cc3c(Nc4ccc5scnc5c4)ncnc3cc2Cl)s1`: the IC50 in assay [7] is 156 nM; in assay [1], greater than 50000 nM; in assay [2] it was 5 nM; in assay [4], greater than 50000 nM; in assay [5], 103 nM. In addition, in assay [6], the inhibition result was “inactive”.
With `Cc1ncc(-c2cc3c(Nc4ccc5scnc5c4)ncnc3cc2Cl)n1C`, the IC50 in assay [7] was 189 nM; in assay [1], greater than 50000 nM; in [2] it was 10 nM; in assay [4], greater than 50000 nM; in assay [5] it was 96 nM. For the same compound, in [6], the inhibition entry is “inactive”.
